Our source for the fold induction and EC50 values is patent publication US20220062240A1, “METHODS OF TREATING CANCER USING A CLK INHIBITOR” (BioSplice Therapeutics, Inc., priority 2018, published 2022).

Like-named read-outs stand apart in the source and are kept apart here.

For experiment [1], the system named is SW480 colorectal cancer cells. Nature of the experiment: Gene expression qRT-PCR in SW480 cells. The conditions noted are these: Homo sapiens. The format is cell-based. As to the method: SW480 colorectal cancer cells were plated at 1×10^4 cells per well into 96-well plates (Olympus). Compounds were diluted in cell culture media and added to the cells at a final concentration of 3 μM. Cells were treated with vehicle (DMSO) and compounds for 24 hours. N=3 biological replicates per conditions.
Following treatment, cells were lysed, and cDNA was generated using the Fastlane Cell cDNA Kit (Qiagen).
384-well PCR plates with pre-spotted primers for CLK1, CLK2, CLK3, DVL2, LRP5, SRSF1, SRSF3, SRSF4, SRSF5, TCF7, TCF7L2 were ordered from Bio-Rad. The generated cDNA, along with a SYBR Green qRT-PCR master mix (SsoAdvanced™ Universal SYBR® Green Supermix, Bio-Rad) was added to the PCR plates.
qRT-PCR was performed on the plates using a CFX384 Touch™ Real-Time PCR Detection System (Bio-Rad) with the manufacturer's recommended thermal cycling conditions.
Data from the qRT-PCR assay was normalized to the GAPDH and HPRT1 housekeeping genes and set gene expression fold change was set relative to vehicle-treated cells using the ΔΔCt analysis method.
(Quantitative PCR measures a nucleic acid by following its amplification.)

The test system of experiment [2] is Wnt-responsive Sp5-Luc reporter in SW480 colon carcinoma cells. The experiment in a line: Wnt activity screening assay (Sp5-Luc reporter). The format is cell-based. The settings on record: Homo sapiens. An excerpt: The screening assay for Wnt activity is described as follows. Reporter cell lines can be generated by stably transducing cancer cell lines (e.g., colon cancer) or primary cells (e.g., IEC-6 intestinal cells) with a lentiviral construct that includes a Wnt-responsive promoter driving expression of the firefly luciferase gene.
SW480 colon carcinoma cells were transduced with a lentiviral vector expressing luciferase with a human Sp5 promoter consisting of a sequence of eight TCF/LEF binding sites. […] These stably transduced SW480 cells were expanded in cell culture and used for all further screening activities. […] For Sp5-Luc reporter gene assays, the cells were plated at 4,000 cells/well in 384-well plates with a DMEM medium containing 1% fetal bovine serum, and 1% Penicillin-Streptomycin and incubated for 36 to 48 hours at 37° C. and 5% CO2. Following incubation, 15 μL of BriteLite Plus luminescence reagent (Perkin Elmer) was added to each well of the 384-well assay plates. The plates were placed on an orbital shaker for 2 min and then luminescence was quantified using the Envision (Perkin Elmer) plate reader.

Experiment [3] concerns the target CLK3 (Homo sapiens, UniProt P49761). Nature of the experiment: CLK3 kinase activity assay (Z-lyte, Ser/Thr 18 peptide).
For experiment [4], the target named is T1, CLK2 (Homo sapiens, UniProt P49760).
T1 construct: purchased Thermo Fisher (Life Technologies), Z'-LYTE Kinase Assay Kits
T1 sequence (P49760 whole entry): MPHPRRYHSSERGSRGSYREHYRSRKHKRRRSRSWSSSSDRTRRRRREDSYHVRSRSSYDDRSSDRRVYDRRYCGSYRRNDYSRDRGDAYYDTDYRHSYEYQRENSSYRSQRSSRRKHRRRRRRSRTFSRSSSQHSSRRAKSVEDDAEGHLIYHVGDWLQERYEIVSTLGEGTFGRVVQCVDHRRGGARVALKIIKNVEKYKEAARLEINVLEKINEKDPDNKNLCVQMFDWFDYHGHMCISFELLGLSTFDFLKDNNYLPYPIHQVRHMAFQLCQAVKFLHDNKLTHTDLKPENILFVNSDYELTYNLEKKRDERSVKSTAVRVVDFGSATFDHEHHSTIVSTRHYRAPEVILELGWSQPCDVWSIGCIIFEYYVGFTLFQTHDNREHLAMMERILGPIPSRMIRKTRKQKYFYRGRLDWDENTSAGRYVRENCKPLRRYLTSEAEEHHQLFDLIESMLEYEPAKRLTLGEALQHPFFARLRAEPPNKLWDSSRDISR
Nature of the experiment: CLK2 kinase activity assay (Z-lyte, Ser/Thr 6 peptide). The format is biochemical. How it is done: All reactions were performed in duplicate.

Where [5] appears, read: SW480, 3 μM, 24 hours, relative to DMSO, read-out: gene expression fold change CLK1.
Where [6] appears, read: SW480, 3 μM, 24 hours, relative to DMSO, read-out: gene expression fold change CLK2.
[7] abbreviates: SW480, 3 μM, 24 hours, relative to DMSO, read-out: gene expression fold change CLK3.
Where [8] appears, read: SW480, 3 μM, 24 hours, relative to DMSO, read-out: gene expression fold change DVL2.
[9] abbreviates: SW480, 3 μM, 24 hours, relative to DMSO, read-out: gene expression fold change LRP5.
Where [10] appears, read: SW480, 3 μM, 24 hours, relative to DMSO, read-out: gene expression fold change SRSF1.
Where [11] appears, read: SW480, 3 μM, 24 hours, relative to DMSO, read-out: gene expression fold change SRSF3.
The mark [12] stands for this setting: SW480, 3 μM, 24 hours, relative to DMSO, read-out: gene expression fold change SRSF4.
Where [13] appears, read: SW480, 3 μM, 24 hours, relative to DMSO, read-out: gene expression fold change SRSF5.
Where [14] appears, read: SW480, 3 μM, 24 hours, relative to DMSO, read-out: gene expression fold change TCF7.
Where [15] appears, read: SW480, 3 μM, 24 hours, relative to DMSO, read-out: gene expression fold change TCF7L2.
[16] abbreviates: SW480 Sp5-Luc reporter, 36 to 48 hours, read-out: EC50.
Where [17] appears, read: recombinant CLK2 kinase, ATP 60 μM, read-out: EC50.

Sequence of CLK3 (P49761 whole entry): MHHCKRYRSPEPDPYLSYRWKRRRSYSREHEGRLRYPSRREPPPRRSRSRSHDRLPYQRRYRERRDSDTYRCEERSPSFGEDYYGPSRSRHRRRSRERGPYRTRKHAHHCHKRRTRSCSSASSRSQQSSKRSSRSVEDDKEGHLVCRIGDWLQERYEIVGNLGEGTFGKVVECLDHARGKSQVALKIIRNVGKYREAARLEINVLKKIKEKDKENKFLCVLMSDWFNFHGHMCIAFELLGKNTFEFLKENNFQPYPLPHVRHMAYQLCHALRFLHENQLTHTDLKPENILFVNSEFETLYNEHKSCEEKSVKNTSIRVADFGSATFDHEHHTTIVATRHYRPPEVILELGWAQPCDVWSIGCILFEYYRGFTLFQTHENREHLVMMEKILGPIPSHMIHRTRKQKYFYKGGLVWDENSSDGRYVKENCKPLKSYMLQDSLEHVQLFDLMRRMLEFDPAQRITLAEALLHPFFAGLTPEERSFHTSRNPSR

As usually defined, the EC50 is the midpoint of the concentration-response curve. With `Cc1n[nH]c2ccc(-c3cncc(OC[C@H](N)Cc4ccccc4)n3)cc12` [Compound 2], the fold induction at 3 µM in experiment [1] (setting [5]) is 0.01; in experiment [1] (setting [6]), 0.05; in experiment [1] (setting [7]) it was 0.02; in experiment [1] (setting [8]), 0.05; in experiment [1] (setting [9]), 0.07; in experiment [1] (setting [10]), 0.13. For the same compound, the fold induction at 3 µM was 0.05 in experiment [1] (setting [11]); 0.02 in experiment [1] (setting [12]); 0.14 in experiment [1] (setting [13]); 0.32 in experiment [1] (setting [14]); 0.13 in experiment [1] (setting [15]). Further, in experiment [2] (setting [16]), the concentration for a half-maximal effect (EC50) came out at 0.253 µM.
Take `Cc1n[nH]c2ccc(-c3cncc(OC[C@@H](N)Cc4ccccc4)c3)cc12` [Compound 3]: the EC50 in experiment [2] (setting [16]) is 0.356 µM.
In the case of `CN(C)CCN(C)c1ccc(NC(=O)c2n[nH]c3ccc(-c4cncc(CN5CCCCC5)c4)cc23)cn1` [Compound 6], the fold induction at 3 µM in experiment [1] (setting [5]) turned out to be 0.04; in experiment [1] (setting [6]) it was 0.06; in experiment [1] (setting [7]), 0.03; in experiment [1] (setting [8]), 0.06; in experiment [1] (setting [9]), 0.05; in experiment [1] (setting [10]) it was 0.1. Further, the fold induction at 3 µM was determined as 0.04 in experiment [1] (setting [11]); 0.01 in experiment [1] (setting [12]); 0.1 in experiment [1] (setting [13]); 0.31 in experiment [1] (setting [14]); 0.07 in experiment [1] (setting [15]). Besides, the EC50 in experiment [2] (setting [16]) was determined as 0.065 µM; in experiment [3], 0.017 µM.
Turning to `Cc1ccc(-c2cncc3[nH]c(-c4n[nH]c5ccc(-c6cncc(N)c6)nc45)nc23)s1` [Compound 7], the figures for the EC50 in experiment [4] (setting [17]), in experiment [2] (setting [16]) and in experiment [3] were 0.001 µM, 0.041 µM and 0.01 µM, respectively.
Consider `Cc1ncc(-c2ccc3[nH]nc(-c4nc5c(-c6cc(F)cc(NCCN(C)C)c6)ccnc5[nH]4)c3n2)n1C` [Compound 8], for which the results for the EC50 in experiment [4] (setting [17]), in experiment [2] (setting [16]) and in experiment [3] were 0.001 µM, 0.623 µM and 0.022 µM, respectively.
In the case of `CNc1nc(NCc2ncccn2)c2c(-c3ccc4ncccc4c3)c[nH]c2n1` [Compound 9], the fold induction at 3 µM in experiment [1] (SW480, 24 h, read-out: gene expression fold change CLK1) was found to be 0.16; in experiment [1] (SW480, 24 h, read-out: gene expression fold change CLK2), 0.06; in experiment [1] (SW480, 24 h, read-out: gene expression fold change CLK3) it was 0.51; in experiment [1] (SW480, 24 h, read-out: gene expression fold change DVL2), 0.21; in experiment [1] (SW480, 24 h, read-out: gene expression fold change LRP5), 0.18; in experiment [1] (SW480, 24 h, read-out: gene expression fold change SRSF1) it was 1.91. The fold induction at 3 µM in experiment [1] (SW480, 24 h, read-out: gene expression fold change SRSF3) worked out at 0.62; in experiment [1] (SW480, 24 h, read-out: gene expression fold change SRSF4), 0.62; in experiment [1] (SW480, 24 h, read-out: gene expression fold change SRSF5), 0.56; in experiment [1] (SW480, 24 h, read-out: gene expression fold change TCF7), 0.2; in experiment [1] (SW480, 24 h, read-out: gene expression fold change TCF7L2), 0.29. Besides, it took 0.092 µM to reach a half-maximal effect in experiment [2] (SW480) (EC50).
As to `Cn1ncc(-c2ccc3cnc(NC(=O)c4ccnc(N5CCOCC5)c4)cc3c2)c1CN1CCOCC1` [Compound 13], the concentration giving a half-maximal response (EC50) stood at 0.001 µM in experiment [4] (setting [17]) and 0.01 µM in experiment [3].
Regarding `Cn1cncc1-c1ccc2cnc(NC(=O)c3ccc4c(c3)CNC4)cc2c1` [Compound 15], the EC50 in experiment [4] (setting [17]) came out at 0.001 µM; in experiment [3], 0.03 µM.
Take `Cc1ncc(C(=O)Nc2cc3cc(-c4cnc(C)n4C)ccc3cn2)s1` [Compound 16]: the fold induction at 3 µM in experiment [1] (setting [5]) came out at 0.22; in experiment [1] (setting [6]) it was 0.06; in experiment [1] (setting [7]) it was 0.59; in experiment [1] (setting [8]), 0.18; in experiment [1] (setting [9]) it was 0.17; in experiment [1] (setting [10]), 1.92. Further, the fold induction at 3 µM in experiment [1] (setting [11]) was determined as 0.61; in experiment [1] (setting [12]), 0.66; in experiment [1] (setting [13]), 0.54; in experiment [1] (setting [14]), 0.21; in experiment [1] (setting [15]) it was 0.14. The EC50 is 0.001 µM in experiment [4] (setting [17]) and 0.165 µM in experiment [2] (setting [16]).
In the case of `CC(C)Oc1ccc(C(=O)Nc2cc3cc(-c4cnc5n4CCNC5)ccc3cn2)cc1` [Compound 17], the results for the EC50 in experiment [4] (setting [17]) and in experiment [3] were 0.002 µM and 0.161 µM, respectively.
As for `CN1CCN(c2ccc(C(=O)Nc3cc4cc(-c5nncs5)ccc4cn3)cn2)CC1` [Compound 18], the EC50 in experiment [4] (setting [17]) came to 0.002 µM; in experiment [3] it was 0.054 µM.
Take `Cc1nnc(-c2ccc3cnc(NC(=O)c4ccnc(SC5CCN(C)CC5)c4)cc3c2)s1` [Compound 19]: the EC50 came out at 0.002 µM in experiment [4] (setting [17]) and 0.014 µM in experiment [3].
Consider `O=C(Nc1cc2cc(-c3cncc(NCC4(F)CNC4)n3)ccc2cn1)C1CC1` [Compound 21], for which the fold induction at 3 µM stood at 0.02 in experiment [1] (setting [5]); 0.03 in experiment [1] (setting [6]); 0.05 in experiment [1] (setting [7]); 0.15 in experiment [1] (setting [8]); 0.07 in experiment [1] (setting [9]); 0.22 in experiment [1] (setting [10]). Further, the fold induction at 3 µM in experiment [1] (setting [11]) was 0.07; in experiment [1] (setting [12]) it was 0.03; in experiment [1] (setting [13]), 0.16; in experiment [1] (setting [14]), 0.48; in experiment [1] (setting [15]), 0.1. Also, the EC50 was 0.001 µM in experiment [4] (setting [17]) and 0.151 µM in experiment [2] (setting [16]).
Regarding `CN1CCC(n2cc(C(=O)Nc3cc4cc(-c5cncc6[nH]ccc56)ccc4cn3)cn2)CC1` [Compound 23], the fold induction at 3 µM in experiment [1] (setting [5]) is 0.02; in experiment [1] (setting [6]), 0.03; in experiment [1] (setting [7]), 0.02; in experiment [1] (setting [8]), 0.11; in experiment [1] (setting [9]), 0.04; in experiment [1] (setting [10]), 0.3. The fold induction at 3 µM in experiment [1] (setting [11]) worked out at 0.09; in experiment [1] (setting [12]), 0.02; in experiment [1] (setting [13]), 0.24; in experiment [1] (setting [14]), 0.25; in experiment [1] (setting [15]), 0.12. Moreover, the EC50 in experiment [2] (setting [16]) is 0.026 µM; in experiment [3] it was 0.009 µM.
Regarding `NC(=O)c1ccc(NC(=O)c2n[nH]c3ccc(-c4cncc(CN5CCCCC5)c4)cc23)cn1` [Compound 30], in experiment [2] (setting [16]), the EC50 amounted to 0.013 µM.
As for `CN1CCN(c2ccc(NC(=O)c3n[nH]c4ccc(-c5cncc(CN6CCC(F)(F)C6)c5)cc34)cn2)CC1` [Compound 31], the EC50 in experiment [2] (setting [16]) was 0.004 µM.
For `Nc1ncc(NC(=O)c2n[nH]c3ccc(-c4cncc(CN5CCCCC5)c4)cc23)cn1` [Compound 33], the EC50 in experiment [2] (setting [16]) turned out to be 0.03 µM.
For `CN(C)C(=O)Nc1cncc(-c2ccc3[nH]nc(C(=O)Nc4cccnc4)c3c2)c1` [Compound 34], in experiment [2] (setting [16]), the EC50 turned out to be 0.176 µM.
With `CN1CCC(Oc2cc(NC(=O)c3n[nH]c4cc(F)c(-c5cnn(C)c5)cc34)ccn2)CC1` [Compound 35], the EC50 in experiment [4] (setting [17]) came out at 0.001 µM; in experiment [3], 0.02 µM.
For `CN1CCN(Cc2ccc(NC(=O)c3n[nH]c4ccc(-c5cccnc5)cc34)cn2)CC1` [Compound 36], the EC50 in experiment [2] (setting [16]) came to 0.037 µM.
Same read-out and setting: under `COc1ccc(NC(=O)c2n[nH]c3ccc(-c4cncc(CO)c4)cc23)cn1` [Compound 37] stands 0.097 µM; under `CN1CCN(c2nccc3[nH]c(-c4n[nH]c5cc(F)c(-c6cnn(C)c6)cc45)nc23)CC1` [Compound 42], 0.086 µM.
For the compound `O=C(Nc1cc2cc(-c3cnn4c3CN(CCF)CC4)ccc2cn1)c1ccnc(OC2CNC2)c1` [Compound 79], the results for the EC50 in experiment [4] and in experiment [3] were 0.0044 µM and 0.0443 µM, respectively.
